# In patent US20080009418A1, “Selective Inhibitors” (Alchemia LTD., priority 2004, published 2008):
# Tests used:
# Mouse urotensin (mUR2) = biological target: T1, Mouse urotensin (mUR2) (Mus musculus, UniProt Q8VIH9); test: Radioligand binding, mouse urotensin mUR2 membranes, FlashPlate, [125I]-Urotensin II; conditions: compound at 10 μM; [125I]-Urotensin II
# T1 construct: purchased Perkin Elmer Biosignal
# T1 sequence (Q8VIH9 1-385): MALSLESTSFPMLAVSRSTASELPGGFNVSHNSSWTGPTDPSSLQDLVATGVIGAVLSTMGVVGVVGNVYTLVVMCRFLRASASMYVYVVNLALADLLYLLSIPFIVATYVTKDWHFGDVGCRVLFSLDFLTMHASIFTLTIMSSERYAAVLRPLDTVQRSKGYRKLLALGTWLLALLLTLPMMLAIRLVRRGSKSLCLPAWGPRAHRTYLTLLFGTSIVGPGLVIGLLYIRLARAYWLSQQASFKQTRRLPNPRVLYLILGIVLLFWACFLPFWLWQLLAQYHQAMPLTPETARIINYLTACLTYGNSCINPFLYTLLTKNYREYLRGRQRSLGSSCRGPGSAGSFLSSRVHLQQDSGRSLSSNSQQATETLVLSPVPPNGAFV
# Procedure, shortened: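 Cloned mouse urotensin (mUR2) receptor membranes from Perkin Elmer Biosignal were immobilized in FlashPlate microplates using a proprietary coating. Each well got 19.5 μl buffer, then 0.5 μl of DMSO, reference ligand, or compound. Adding 5 μl of [125I]-Urotensin II, diluted to 5× final concentration in binding buffer, started binding. Plates were sealed with TopSeal-A and incubated 1 hour at room temperature in the dark. Wells were counted for 30 seconds each on a TopCount after a 60-second delay, and percentage inhibition was calculated.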
# [1] = biological target: T2, Human neuropeptide Y (NPY-Y1) (Homo sapiens, UniProt P25929); test: Radioligand binding, human neuropeptide Y NPY-Y1 membranes, FlashPlate, [125I]-PYY; conditions: compound at 10 μM; [125I]-PYY
# T2 construct: purchased Perkin Elmer Biosignal
# T2 sequence (P25929 1-384): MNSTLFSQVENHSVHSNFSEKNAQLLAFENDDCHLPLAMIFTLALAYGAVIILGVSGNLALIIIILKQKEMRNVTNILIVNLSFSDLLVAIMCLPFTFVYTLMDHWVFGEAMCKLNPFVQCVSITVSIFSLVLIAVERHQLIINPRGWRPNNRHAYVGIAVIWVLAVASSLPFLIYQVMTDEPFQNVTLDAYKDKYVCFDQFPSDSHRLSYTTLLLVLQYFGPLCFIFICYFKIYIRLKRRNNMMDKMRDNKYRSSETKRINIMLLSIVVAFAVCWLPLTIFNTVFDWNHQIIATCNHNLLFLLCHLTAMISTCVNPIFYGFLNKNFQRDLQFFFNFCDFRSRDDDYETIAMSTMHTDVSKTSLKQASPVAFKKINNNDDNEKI
# Procedure, shortened: (§1)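 Cloned human receptor membranes were coated onto FlashPlate wells and incubated with radioligand and compound (added from a 0.5 mM DMSO daughter plate) for 1 hour at room temperature in the dark. Scintillation counting gave percent inhibition, with DMSO defining total and reference ligand defining non-specific binding.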
# Human opioid (ORL1) = biological target: T3, Human opioid (ORL1) (Homo sapiens, UniProt P41146); test: Radioligand binding, human opioid ORL1 membranes, FlashPlate, [125I]-Nociceptin; conditions: compound at 10 μM; [125I]-Nociceptin
# T3 construct: purchased Perkin Elmer Biosignal
# Procedure, shortened: as §1
# Human Melanocortin (MC3) = biological target: T4, Human Melanocortin (MC3) (Homo sapiens, UniProt P41968); test: Radioligand binding, human melanocortin MC3 membranes, FlashPlate, [125I]-NDP-αMSH; conditions: compound at 10 μM; [125I]-NDP-αMSH
# T4 construct: purchased Perkin Elmer Biosignal
# Procedure, shortened: as §1
# Human melanocortin (MC5) = biological target: T5, Human melanocortin (MC5) (Homo sapiens, UniProt P33032); test: Radioligand binding, human melanocortin MC5 membranes, FlashPlate, [125I]-NDP-αMSH; conditions: compound at 10 μM, [125I]-NDP-αMSH
# T5 construct: purchased Perkin Elmer Biosignal
# Procedure, shortened: as §1
# [2] = biological target: T6, Human melanin-concentrating hormone (MCH1) (Homo sapiens, UniProt Q99705); test: Radioligand binding, human melanin-concentrating hormone MCH1 membranes, FlashPlate, [125I]-S36057; conditions: compound at 10 μM; [125I]-S36057
# T6 construct: purchased Perkin Elmer Biosignal
# Procedure, shortened: as §1
# Human κ-Opioid (KOP) = biological target: T7, Human κ-Opioid (KOP) (Homo sapiens, UniProt P41145); test: Radioligand binding, human κ-opioid (KOP) membranes, filtration, [3H]-Diprenorphine; conditions: compound at 10 μM; [3H]-Diprenorphine
# T7 construct: purchased Perkin Elmer Biosignal
# Procedure, shortened: (§2)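 Membranes from cloned human receptors were incubated with compound and radioligand for 1 hour at room temperature. Bound ligand was collected on 0.3% PEI-soaked filters, washed with cold 50 mM Tris-HCl pH 7.4, and counted by scintillation. Percent inhibition was computed against DMSO totals and reference-ligand nonspecific wells.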
# Human neurokinin (NK1) = biological target: T8, Human neurokinin (NK1) (Homo sapiens, UniProt P25103); test: Radioligand binding, human neurokinin NK1 membranes, filtration, [125I]-Substance P; conditions: compound at 10 μM, [125I]-Substance P
# T8 construct: purchased Perkin Elmer Biosignal
# Procedure, shortened: as §2
# Human Melanocortin (MC4) = biological target: T9, Human Melanocortin (MC4) (Homo sapiens, UniProt P32245); test: Radioligand binding, human melanocortin MC4 membranes, FlashPlate, [125I]-NDP-αMSH; conditions: compound at 10 μM; [125I]-NDP-αMSH
# T9 construct: purchased Perkin Elmer Biosignal
# Procedure, shortened: as §1
# Human μ-opioid (MOP) = biological target: T10, Human μ-opioid (MOP) (Homo sapiens, UniProt P35372); test: Radioligand binding, human μ-opioid (MOP) membranes, FlashPlate, [3H]-Naloxone; conditions: compound at 10 μM; [3H]-Naloxone
# T10 construct: purchased Perkin Elmer Biosignal
# Procedure, shortened: as §1
# Human δ-opioid (DOP) = biological target: T11, Human δ-opioid (DOP) (Homo sapiens, UniProt P41143); test: Radioligand binding, human δ-opioid (DOP) membranes, FlashPlate, [3H]-Bremazocine; conditions: compound at 10 μM; [3H]-Bremazocine
# T11 construct: purchased Perkin Elmer Biosignal
# Procedure, shortened: as §1
# T11 sequence (P41143 whole entry): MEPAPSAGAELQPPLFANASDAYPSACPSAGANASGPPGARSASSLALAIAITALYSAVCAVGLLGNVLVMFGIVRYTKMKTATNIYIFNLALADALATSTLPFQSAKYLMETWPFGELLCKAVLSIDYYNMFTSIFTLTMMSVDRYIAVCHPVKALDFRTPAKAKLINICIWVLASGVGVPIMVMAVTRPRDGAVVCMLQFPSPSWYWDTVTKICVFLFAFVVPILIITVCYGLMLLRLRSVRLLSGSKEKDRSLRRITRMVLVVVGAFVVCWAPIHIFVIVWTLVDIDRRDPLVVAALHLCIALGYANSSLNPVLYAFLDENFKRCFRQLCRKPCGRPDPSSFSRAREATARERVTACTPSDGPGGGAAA
# T5 sequence (P33032 whole entry): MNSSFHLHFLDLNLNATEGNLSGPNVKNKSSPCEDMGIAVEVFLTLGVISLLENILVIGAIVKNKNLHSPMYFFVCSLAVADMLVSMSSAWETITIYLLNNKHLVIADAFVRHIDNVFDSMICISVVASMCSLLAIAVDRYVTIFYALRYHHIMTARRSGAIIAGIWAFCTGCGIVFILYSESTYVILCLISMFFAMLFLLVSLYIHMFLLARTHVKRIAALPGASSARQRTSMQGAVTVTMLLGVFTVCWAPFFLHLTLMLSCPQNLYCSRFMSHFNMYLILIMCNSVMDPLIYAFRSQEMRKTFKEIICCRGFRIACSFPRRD
# T8 sequence (P25103 whole entry): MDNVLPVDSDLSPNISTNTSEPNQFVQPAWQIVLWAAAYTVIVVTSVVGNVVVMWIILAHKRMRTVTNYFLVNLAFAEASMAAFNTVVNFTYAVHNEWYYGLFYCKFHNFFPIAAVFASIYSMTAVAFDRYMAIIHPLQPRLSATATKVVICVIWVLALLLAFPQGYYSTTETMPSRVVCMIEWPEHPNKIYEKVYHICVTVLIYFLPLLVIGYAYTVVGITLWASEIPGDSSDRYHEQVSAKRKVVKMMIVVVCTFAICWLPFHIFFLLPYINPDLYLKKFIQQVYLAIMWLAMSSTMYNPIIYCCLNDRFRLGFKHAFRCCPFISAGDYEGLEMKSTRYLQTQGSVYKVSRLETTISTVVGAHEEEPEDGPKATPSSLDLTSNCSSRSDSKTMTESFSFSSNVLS
# T3 sequence (P41146 whole entry): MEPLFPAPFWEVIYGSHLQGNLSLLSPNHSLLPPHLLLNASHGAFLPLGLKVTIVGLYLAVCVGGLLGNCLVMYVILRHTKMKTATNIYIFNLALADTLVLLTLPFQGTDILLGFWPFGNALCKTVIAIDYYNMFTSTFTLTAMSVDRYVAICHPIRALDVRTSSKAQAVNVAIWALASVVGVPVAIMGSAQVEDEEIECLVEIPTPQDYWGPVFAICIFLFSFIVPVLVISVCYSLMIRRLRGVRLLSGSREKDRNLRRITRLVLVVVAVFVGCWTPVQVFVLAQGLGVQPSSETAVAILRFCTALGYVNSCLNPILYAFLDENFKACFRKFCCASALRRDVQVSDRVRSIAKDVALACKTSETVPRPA
# T10 sequence (P35372 whole entry): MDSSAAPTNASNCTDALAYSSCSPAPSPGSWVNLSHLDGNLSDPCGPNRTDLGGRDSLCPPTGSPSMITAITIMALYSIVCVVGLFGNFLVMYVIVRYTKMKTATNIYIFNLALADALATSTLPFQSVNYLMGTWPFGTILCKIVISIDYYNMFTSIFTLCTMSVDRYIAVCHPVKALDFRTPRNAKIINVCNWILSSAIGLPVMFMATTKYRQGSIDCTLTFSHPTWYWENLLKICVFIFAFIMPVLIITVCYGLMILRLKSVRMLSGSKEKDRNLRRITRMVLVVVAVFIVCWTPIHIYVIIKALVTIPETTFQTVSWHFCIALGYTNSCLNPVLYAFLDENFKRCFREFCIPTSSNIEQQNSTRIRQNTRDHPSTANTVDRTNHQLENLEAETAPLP
# T6 sequence (Q99705 whole entry): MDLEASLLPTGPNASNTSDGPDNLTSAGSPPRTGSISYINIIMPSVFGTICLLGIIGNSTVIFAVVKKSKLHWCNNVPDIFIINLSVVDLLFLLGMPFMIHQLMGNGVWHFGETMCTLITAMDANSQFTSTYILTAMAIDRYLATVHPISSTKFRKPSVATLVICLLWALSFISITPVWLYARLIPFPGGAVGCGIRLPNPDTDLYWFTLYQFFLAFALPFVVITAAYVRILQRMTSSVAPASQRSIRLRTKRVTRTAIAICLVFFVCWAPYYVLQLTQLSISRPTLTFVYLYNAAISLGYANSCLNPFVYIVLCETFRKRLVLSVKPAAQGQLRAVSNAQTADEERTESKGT
# T7 sequence (P41145 whole entry): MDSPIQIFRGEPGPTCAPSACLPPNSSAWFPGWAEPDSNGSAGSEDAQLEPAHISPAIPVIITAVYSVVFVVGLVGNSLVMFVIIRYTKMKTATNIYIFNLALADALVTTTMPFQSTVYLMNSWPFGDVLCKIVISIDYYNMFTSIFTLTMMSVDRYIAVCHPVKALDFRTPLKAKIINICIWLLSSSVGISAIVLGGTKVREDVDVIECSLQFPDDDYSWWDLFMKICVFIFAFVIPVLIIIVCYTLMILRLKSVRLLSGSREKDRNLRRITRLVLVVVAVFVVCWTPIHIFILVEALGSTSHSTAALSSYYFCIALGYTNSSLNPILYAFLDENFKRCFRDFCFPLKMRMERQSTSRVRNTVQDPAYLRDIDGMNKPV
# T9 sequence (P32245 whole entry): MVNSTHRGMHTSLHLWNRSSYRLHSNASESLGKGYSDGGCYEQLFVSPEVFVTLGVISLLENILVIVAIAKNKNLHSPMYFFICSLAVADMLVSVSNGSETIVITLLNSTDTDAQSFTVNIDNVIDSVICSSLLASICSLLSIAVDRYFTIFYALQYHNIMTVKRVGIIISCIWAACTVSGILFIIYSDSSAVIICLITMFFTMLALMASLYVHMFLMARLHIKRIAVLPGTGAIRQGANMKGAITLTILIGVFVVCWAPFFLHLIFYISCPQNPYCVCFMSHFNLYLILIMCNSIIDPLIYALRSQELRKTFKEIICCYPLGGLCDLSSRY
# T4 sequence (P41968 whole entry): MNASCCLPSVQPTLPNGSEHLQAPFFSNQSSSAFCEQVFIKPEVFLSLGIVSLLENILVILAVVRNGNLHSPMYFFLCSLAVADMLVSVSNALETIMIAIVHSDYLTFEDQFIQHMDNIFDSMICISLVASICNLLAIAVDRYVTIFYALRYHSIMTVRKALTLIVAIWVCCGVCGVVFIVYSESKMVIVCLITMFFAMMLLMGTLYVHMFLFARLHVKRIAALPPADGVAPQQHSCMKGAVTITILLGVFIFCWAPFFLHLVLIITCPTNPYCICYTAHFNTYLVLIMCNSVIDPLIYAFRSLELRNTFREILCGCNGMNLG
SMILES,"A11: inhibition of radioligand binding, mouse urotensin (mUR2) (Mouse urotensin (mUR2))","A9: inhibition of radioligand binding, human neuropeptide Y (NPY-Y1) [1]","A10: inhibition of radioligand binding, human opioid (ORL1) (Human opioid (ORL1))","A3: inhibition of radioligand binding, human melanocortin (MC3) (Human Melanocortin (MC3))","A5: inhibition of radioligand binding, human melanocortin (MC5) (Human melanocortin (MC5))","A6: inhibition of radioligand binding, human melanin-concentrating hormone (MCH1) [2]","A2: inhibition of radioligand binding, human κ-opioid (KOP) (Human κ-Opioid (KOP))","A8: inhibition of radioligand binding, human neurokinin (NK1) (Human neurokinin (NK1))","A4: inhibition of radioligand binding, human melanocortin (MC4) (Human Melanocortin (MC4))","A7: inhibition of radioligand binding, human μ-opioid (MOP) (Human μ-opioid (MOP))","A1: inhibition of radioligand binding, human δ-opioid (DOP) (Human δ-opioid (DOP))","A5: inhibition of radioligand binding, human melanocortin (MC5) (Human melanocortin (MC5); 10 µM)","A8: inhibition of radioligand binding, human neurokinin (NK1) (Human neurokinin (NK1); 10 µM)"
N=C(N)NCCCC(=O)NC1COC(COCc2ccc(Cl)cc2)C(O)C1OCc1ccc(Cl)cc1 (stereo not shown) [compound 542],− (“−” indicates less than 50% inhibition at 10 μM),− (“−” indicates less than 50% inhibition at 10 μM),− (“−” indicates less than 50% inhibition at 10 μM),− (“−” indicates less than 50% inhibition at 10 μM),− (“−” indicates less than 50% inhibition at 10 μM),− (“−” indicates less than 50% inhibition at 10 μM),− (“−” indicates less than 50% inhibition at 10 μM),+ (“+” indicates greater than 50% inhibition at 10 μM),− (“−” indicates less than 50% inhibition at 10 μM),− (“−” indicates less than 50% inhibition at 10 μM),− (“−” indicates less than 50% inhibition at 10 μM),–,–
COCC1OC(NC(=O)Cc2ccccc2)C(NC(=O)CCCN)C(OCc2ccc3ccccc3c2)C1O (stereo not shown) [compound 543],− (“−” indicates less than 50% inhibition at 10 μM),− (“−” indicates less than 50% inhibition at 10 μM),− (“−” indicates less than 50% inhibition at 10 μM),− (“−” indicates less than 50% inhibition at 10 μM),− (“−” indicates less than 50% inhibition at 10 μM),− (“−” indicates less than 50% inhibition at 10 μM),− (“−” indicates less than 50% inhibition at 10 μM),+ (“+” indicates greater than 50% inhibition at 10 μM),− (“−” indicates less than 50% inhibition at 10 μM),− (“−” indicates less than 50% inhibition at 10 μM),− (“−” indicates less than 50% inhibition at 10 μM),–,–
NCCC(=O)NC1COC(COCc2ccc(-c3ccccc3)cc2)C(O)C1OCc1ccc(Cl)cc1 (stereo not shown) [compound 544],− (“−” indicates less than 50% inhibition at 10 μM),− (“−” indicates less than 50% inhibition at 10 μM),− (“−” indicates less than 50% inhibition at 10 μM),+ (“+” indicates greater than 50% inhibition at 10 μM),− (“−” indicates less than 50% inhibition at 10 μM),− (“−” indicates less than 50% inhibition at 10 μM),+ (“+” indicates greater than 50% inhibition at 10 μM),+ (“+” indicates greater than 50% inhibition at 10 μM),− (“−” indicates less than 50% inhibition at 10 μM),− (“−” indicates less than 50% inhibition at 10 μM),− (“−” indicates less than 50% inhibition at 10 μM),–,–
COCC1OC(OCc2ccc3ccccc3c2)C(NC(=O)CCN)C(OCc2ccc3ccccc3c2)C1O (stereo not shown) [compound 545],− (“−” indicates less than 50% inhibition at 10 μM),− (“−” indicates less than 50% inhibition at 10 μM),− (“−” indicates less than 50% inhibition at 10 μM),− (“−” indicates less than 50% inhibition at 10 μM),–,− (“−” indicates less than 50% inhibition at 10 μM),− (“−” indicates less than 50% inhibition at 10 μM),–,− (“−” indicates less than 50% inhibition at 10 μM),− (“−” indicates less than 50% inhibition at 10 μM),− (“−” indicates less than 50% inhibition at 10 μM),− (“−” indicates less than 50% inhibition at 10 μM),+ (“+” indicates greater than 50% inhibition at 10 μM)
COCC1OC(OCc2ccc3ccccc3c2)C(NC(=O)CCN)C(OCc2ccc3ccccc3c2)C1O (stereo not shown) [compound 546],− (“−” indicates less than 50% inhibition at 10 μM),− (“−” indicates less than 50% inhibition at 10 μM),− (“−” indicates less than 50% inhibition at 10 μM),− (“−” indicates less than 50% inhibition at 10 μM),–,− (“−” indicates less than 50% inhibition at 10 μM),− (“−” indicates less than 50% inhibition at 10 μM),–,− (“−” indicates less than 50% inhibition at 10 μM),− (“−” indicates less than 50% inhibition at 10 μM),− (“−” indicates less than 50% inhibition at 10 μM),+ (“+” indicates greater than 50% inhibition at 10 μM),− (“−” indicates less than 50% inhibition at 10 μM)
